According to the NIST ThermoML archive (doi:10.1016/j.tca.2018.10.018):
Numbers after ± are expanded uncertainties.

How the values were obtained:
[1] = Liquid; for viscosity: Capillary tube (Ostwald / Ubbelohde) method; for mass density: Siemens Coriolis flowmeter
[2] = xn = mol fraction of the nth substance listed; conditions: Liquid, x2 = 0; for viscosity: Capillary tube (Ostwald / Ubbelohde) method; for mass density: Siemens Coriolis flowmeter

## CCCCCCC [heptane]
[1]; 298.15 K, 100 kPa
  viscosity: 0.404 ± 0.013 mPa·s
  mass density: 680 ± 2 kg/m3
[1]; 298.15 K, 3000 kPa
  viscosity: 0.415 ± 0.013 mPa·s
  mass density: 683 ± 2 kg/m3
[1]; 298.15 K, 6000 kPa
  viscosity: 0.42 ± 0.013 mPa·s
  mass density: 686 ± 2 kg/m3
[1]; 298.15 K, 9000 kPa
  viscosity: 0.432 ± 0.013 mPa·s
  mass density: 689 ± 2 kg/m3
[1]; 298.15 K, 12000 kPa
  viscosity: 0.446 ± 0.014 mPa·s
  mass density: 691 ± 2 kg/m3
[1]; 298.15 K, 15000 kPa
  viscosity: 0.454 ± 0.014 mPa·s
  mass density: 694 ± 2 kg/m3
[1]; 308.15 K, 100 kPa
  viscosity: 0.367 ± 0.011 mPa·s
  mass density: 670 ± 2 kg/m3
[1]; 308.15 K, 3000 kPa
  viscosity: 0.371 ± 0.012 mPa·s
  mass density: 674 ± 2 kg/m3
[1]; 308.15 K, 6000 kPa
  viscosity: 0.385 ± 0.012 mPa·s
  mass density: 677 ± 2 kg/m3
[1]; 308.15 K, 9000 kPa
  viscosity: 0.396 ± 0.012 mPa·s
  mass density: 680 ± 2 kg/m3
[1]; 308.15 K, 12000 kPa
  viscosity: 0.404 ± 0.013 mPa·s
  mass density: 683 ± 2 kg/m3
[1]; 308.15 K, 15000 kPa
  viscosity: 0.411 ± 0.013 mPa·s
  mass density: 685 ± 2 kg/m3
[1]; 318.15 K, 100 kPa
  viscosity: 0.33 ± 0.01 mPa·s
  mass density: 662 ± 2 kg/m3
[1]; 318.15 K, 3000 kPa
  viscosity: 0.339 ± 0.011 mPa·s
  mass density: 666 ± 2 kg/m3
[1]; 318.15 K, 6000 kPa
  viscosity: 0.347 ± 0.011 mPa·s
  mass density: 669 ± 2 kg/m3
[1]; 318.15 K, 9000 kPa
  viscosity: 0.359 ± 0.011 mPa·s
  mass density: 672 ± 2 kg/m3
[1]; 318.15 K, 12000 kPa
  viscosity: 0.369 ± 0.012 mPa·s
  mass density: 675 ± 2 kg/m3
[1]; 318.15 K, 15000 kPa
  viscosity: 0.374 ± 0.012 mPa·s
  mass density: 678 ± 2 kg/m3

## CCCCCCC [heptane] + CCCCCCCCCC(=O)OC
[2]; 298.15 K, 100 kPa
  viscosity: 0.404 ± 0.013 mPa·s
  mass density: 680 ± 2 kg/m3
[2]; 298.15 K, 3000 kPa
  viscosity: 0.415 ± 0.013 mPa·s
  mass density: 683 ± 2 kg/m3
[2]; 298.15 K, 6000 kPa
  viscosity: 0.42 ± 0.013 mPa·s
  mass density: 686 ± 2 kg/m3
[2]; 298.15 K, 9000 kPa
  viscosity: 0.432 ± 0.013 mPa·s
  mass density: 689 ± 2 kg/m3
[2]; 298.15 K, 12000 kPa
  viscosity: 0.446 ± 0.014 mPa·s
  mass density: 691 ± 2 kg/m3
[2]; 298.15 K, 15000 kPa
  viscosity: 0.454 ± 0.014 mPa·s
  mass density: 694 ± 2 kg/m3
[2]; 308.15 K, 100 kPa
  viscosity: 0.367 ± 0.011 mPa·s
  mass density: 670 ± 2 kg/m3
[2]; 308.15 K, 3000 kPa
  viscosity: 0.371 ± 0.012 mPa·s
  mass density: 674 ± 2 kg/m3
[2]; 308.15 K, 6000 kPa
  viscosity: 0.385 ± 0.012 mPa·s
  mass density: 677 ± 2 kg/m3
[2]; 308.15 K, 9000 kPa
  viscosity: 0.396 ± 0.012 mPa·s
  mass density: 680 ± 2 kg/m3
[2]; 308.15 K, 12000 kPa
  viscosity: 0.404 ± 0.013 mPa·s
  mass density: 683 ± 2 kg/m3
[2]; 308.15 K, 15000 kPa
  viscosity: 0.411 ± 0.013 mPa·s
  mass density: 685 ± 2 kg/m3
[2]; 318.15 K, 100 kPa
  viscosity: 0.33 ± 0.01 mPa·s
  mass density: 662 ± 2 kg/m3
[2]; 318.15 K, 3000 kPa
  viscosity: 0.339 ± 0.011 mPa·s
  mass density: 666 ± 2 kg/m3
[2]; 318.15 K, 6000 kPa
  viscosity: 0.347 ± 0.011 mPa·s
  mass density: 669 ± 2 kg/m3
[2]; 318.15 K, 9000 kPa
  viscosity: 0.359 ± 0.011 mPa·s
  mass density: 672 ± 2 kg/m3
[2]; 318.15 K, 12000 kPa
  viscosity: 0.369 ± 0.012 mPa·s
  mass density: 675 ± 2 kg/m3
[2]; 318.15 K, 15000 kPa
  viscosity: 0.374 ± 0.012 mPa·s
  mass density: 678 ± 2 kg/m3

## CCCCCCCCCC(=O)OC [methyl decanoate]
[1]; 298.15 K, 100 kPa
  viscosity: 1.934 ± 0.06 mPa·s
  mass density: 868 ± 2 kg/m3
[1]; 298.15 K, 3000 kPa
  viscosity: 1.992 ± 0.061 mPa·s
  mass density: 870 ± 2 kg/m3
[1]; 298.15 K, 6000 kPa
  viscosity: 2.058 ± 0.064 mPa·s
  mass density: 872 ± 2 kg/m3
[1]; 298.15 K, 9000 kPa
  viscosity: 2.123 ± 0.066 mPa·s
  mass density: 874 ± 2 kg/m3
[1]; 298.15 K, 12000 kPa
  viscosity: 2.209 ± 0.068 mPa·s
  mass density: 877 ± 2 kg/m3
[1]; 298.15 K, 15000 kPa
  viscosity: 2.272 ± 0.07 mPa·s
  mass density: 878 ± 2 kg/m3
[1]; 308.15 K, 100 kPa
  viscosity: 1.628 ± 0.05 mPa·s
  mass density: 860 ± 2 kg/m3
[1]; 308.15 K, 3010 kPa
  viscosity: 1.675 ± 0.052 mPa·s
  mass density: 862 ± 2 kg/m3
[1]; 308.15 K, 6000 kPa
  viscosity: 1.727 ± 0.053 mPa·s
  mass density: 864 ± 2 kg/m3
[1]; 308.15 K, 9000 kPa
  viscosity: 1.779 ± 0.055 mPa·s
  mass density: 866 ± 2 kg/m3
[1]; 308.15 K, 12000 kPa
  viscosity: 1.835 ± 0.057 mPa·s
  mass density: 869 ± 2 kg/m3
[1]; 308.15 K, 15000 kPa
  viscosity: 1.888 ± 0.058 mPa·s
  mass density: 871 ± 2 kg/m3
[1]; 318.15 K, 100 kPa
  viscosity: 1.38 ± 0.043 mPa·s
  mass density: 853 ± 2 kg/m3
[1]; 318.15 K, 3000 kPa
  viscosity: 1.417 ± 0.044 mPa·s
  mass density: 854 ± 2 kg/m3
[1]; 318.15 K, 6000 kPa
  viscosity: 1.462 ± 0.045 mPa·s
  mass density: 856 ± 2 kg/m3
[1]; 318.15 K, 9000 kPa
  viscosity: 1.491 ± 0.046 mPa·s
  mass density: 859 ± 2 kg/m3
[1]; 318.15 K, 12000 kPa
  viscosity: 1.534 ± 0.047 mPa·s
  mass density: 861 ± 2 kg/m3
[1]; 318.15 K, 15000 kPa
  viscosity: 1.578 ± 0.049 mPa·s
  mass density: 863 ± 2 kg/m3
